Experimental data as given in patent US7365069B2, “Pyrimidone derivatives” (Bexel Pharmaceuticals Inc., priority 2002, dated 2008).

How the values were obtained:
IL-6 = IL-6 production in LPS-stimulated human whole blood; format: cell-based; conditions: LPS 4 h
Procedure: This assay determines the effect of test compounds on the production of IL-6 from human whole blood. Compounds are tested for their ability to downregulate the production of IL-6 in activated whole blood. The test compounds are pre-incubated for 15 minutes at 37° C. and then stimulated with Lipopolysaccharide (Salmonella abortus equi, 1 μg/ml) for 4 h at 37° C. in 5% CO2. The levels of Interleukin-6 are estimated using Enzyme linked Immunosorbent assay performed in a 96 well format as per the procedure of the manufacturer (Cayman Chemical, Ann Arbor, USA).

NCI-H460 = assay: DTP human tumor cell line one-dose prescreen, NCI-H460; format: cell-based; conditions: 48 hours, Alamar Blue, test/control, read-out: Percentage growth Lung NCI-H460
Procedure: (§1) DTP Human Tumor Cell Line Screen
(§2) Methodology of the In Vitro Cancer Screen
(§3) The current assay utilizes a 384 well plate format and fluorescent staining technologies resulting in greater screening capacity for testing of synthetic samples.
(§4) The cell lines of the cancer-screening panel are grown in RPMI 1640 medium containing 5% fetal bovine serum and 2 mM L-glutamine. For a typical screening experiment, cells are inoculated into 96 well microtiter plates in 100 μL. After cell inoculation, the microtiter plates are incubated at 37° C., 5% CO2, 95% air and 100% relative humidity for 24 h prior to addition of experimental drugs. The cells are plated a densities of 5000 cells/well (MCF7), 1000 cells/well (NC1—H460), and 7500 cells/well (SF-268) to allow for varying doubling time of the cell lines. Each plate contains all three cell lines, a series of dilutions of standard agents, total kill wells and appropriate controls. Plates are incubated under standard conditions for 24 hours prior to addition of experimental compounds or extracts.
(§5) Addition of Experimental Agents (Pure Compounds)
(§6) Experimental compounds are solubilized in dimethyl sulfoxide (DMSO) at 400-times the desired maximum test concentration (maximum final DMSO concentration of 0.25%) and stored frozen. Compounds are then diluted with complete media with 0.1% gentamicin sulfate (5 μl of test sample in 100% DMSO is added to 565 μl of complete medium). 20 μl of this solution is then dispensed into test wells containing 50 μl of cell suspension to yield a test concentration of 1.00E-04M.
(§7) Two standard drugs, meaning that their activities against the cell lines are well documented, are tested against each cell line: NSC 19893 (5-FU) and NSC 123127 (Adriamycin).
(§8) After compound addition, plates are incubated at standard conditions for 48 hours, 10 μl/well Alamar Blue is added and the plates are incubated for an additional 4 hours. Fluorescence is measured using an excitation wavelength of 530 nm and an emission wavelength of 590 nm.
(§9) Calculation of Percent Test Cell Growth/Control (Untreated) Cell Growth (T/C)
(§10) Percent growth is calculated on a plate-by-plate basis for test wells relative to control wells. Percent Growth is expressed as the ratio of fluorescence of the test well to the average fluorescence of the control wells x 100.

MCF-7 = assay: DTP human tumor cell line one-dose prescreen, MCF-7; format: cell-based; conditions: MCF7, 48 hours, Alamar Blue, test/control, read-out: Percentage growth Breast MCF-7
Procedure: as §1, §2, §3, §4, §5, §6, §7, §8, §9, §10

SF-268 = assay: DTP human tumor cell line one-dose prescreen, SF-268; format: cell-based; conditions: 48 hours, Alamar Blue, test/control, read-out: Percentage growth CNS SF-268
Procedure: as §1, §2, §3, §4, §5, §6, §7, §8, §9, §10

Male Wistar rats [1] = assay: Rat carrageenan paw edema test; format: in vivo; conditions: 10 mg/kg body weight, oral, paw volume 3 hours after carrageenan, read-out: Rat Paw Edema model % inhibition
Procedure: Rat Carrageenan Paw Edema Test
(§11) The carrageenan paw edema test is performed as described by Winter et al (Proc. Soc. Exp. Biol. Med, 111, 544, 1962). Male Wistar rats are selected and the body weights are equivalent within each group. The rats are fasted for eighteen hours with free access to water. The rats are dosed orally with the test compound suspended in vehicle containing 0.5% methylcellulose. The control rats are administered the vehicle alone. After an hour, the rats are injected with 0.1 ml of 1% Carrageenan solution in 0.9% saline into the sub-plantar surface of the right hind paw. Paw volume is measured using water plethysmograph before and after 3 hours of carrageenan injection. The average of foot swelling in drug treated animals is compared with that of control animals. Anti-inflammatory activity is expressed as the percentage inhibition of edema compared with control group [Arzneim-Forsch/Drug Res., 43(I), 1, 44-50,1993; Ottemess and Bliven, Laboratory Models for Testing NSAIDs, In Non-Steroidal Anti-Inflammatory Drugs, (J. Lombardino, ed. 1985)]. In order to evaluate their role on the ulcer formation, the animals are sacrificed and the stomach is taken out and flushed with 1% formalin. The stomach is opened along the greater curvature. The haemorrhagic puncta and sulci are identified microscopically and images are captured. The stomach lesions are calculated.

Male Wistar rats [2] = assay: Gastroulcerogenic potential (stomach lesions after the paw edema test); format: in vivo; conditions: 10 mg/kg body weight, oral, rat
Procedure: as §11

COX-2 = target: T1, COX-2 (Homo sapiens, UniProt P35354); assay: Human whole blood assay, COX-2 inhibition (PGE2 ELISA after LPS); format: cell-based; conditions: LPS 24 h
T1 construct: incubation of human blood with lipopolysaccharide (LPS), which induces COX-2 production in the blood; endogenous in cells; host or cells: fresh human whole blood from volunteers, treated with aspirin and then LPS
T1 sequence (P35354 18-604): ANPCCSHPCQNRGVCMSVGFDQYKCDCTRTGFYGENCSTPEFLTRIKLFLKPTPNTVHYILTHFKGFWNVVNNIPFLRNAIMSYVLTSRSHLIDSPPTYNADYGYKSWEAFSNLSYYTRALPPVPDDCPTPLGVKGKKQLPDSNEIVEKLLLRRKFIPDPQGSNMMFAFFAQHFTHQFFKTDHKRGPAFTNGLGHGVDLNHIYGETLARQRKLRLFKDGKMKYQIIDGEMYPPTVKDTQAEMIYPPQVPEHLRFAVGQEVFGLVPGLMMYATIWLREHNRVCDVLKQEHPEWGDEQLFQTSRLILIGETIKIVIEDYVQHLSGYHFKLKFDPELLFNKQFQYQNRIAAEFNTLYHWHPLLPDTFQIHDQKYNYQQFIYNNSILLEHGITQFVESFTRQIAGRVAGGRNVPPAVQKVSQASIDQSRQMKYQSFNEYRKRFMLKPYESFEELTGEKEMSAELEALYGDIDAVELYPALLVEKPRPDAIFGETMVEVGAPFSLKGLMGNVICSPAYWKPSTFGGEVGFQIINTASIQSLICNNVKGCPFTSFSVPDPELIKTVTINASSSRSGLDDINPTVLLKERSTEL
Procedure: In Vivo Evaluation of Cyclooxygenase-2 (COX-2) Inhibition Activity
The COX-2 inhibition activities of the compounds illustrated in the examples are determined by the following method.
Human whole blood provides a protein and cell rich milieu appropriate for the study of biochemical efficacy of anti-inflammatory compounds such as selective COX-2 inhibitors. […] This is correlating with the observation that COX-2 inhibitors have no effect on prostaglandin E2 (PGE2) production in normal blood. These inhibitors are active only after incubation of human blood with lipopolysaccharide (LPS), which induces COX-2 production in the blood.
Fresh blood is collected in tubes containing potassium EDTA by vein puncture from make volunteers. The subjects should have no apparent inflammatory conditions and not taken NSAIDs for at least 7 days prior to blood collection. Blood is treated with aspirin in vitro (10 μg/ml, at time zero) to inactivate COX-1, and then with LPS (10 μg/ml) along with test agents or vehicle. The blood is incubated for 24 h at 37° C., after which the tubes are centrifuged, the plasma is separated and stored at −80° C. (J. Pharmacol. Exp. Ther, 271, 1705, 1994; Proc. Natl. Acad. Sci. USA., 96, 7563, 1999). The plasma is assayed for PGE2 using Cayman ELISA kit as per the procedure outlined by the manufacturer (Cayman Chemicals, Ann Arbor, USA).

TNF-α = TNF-α production in LPS-stimulated human whole blood; format: cell-based; conditions: 1 μM, LPS 4 h
Procedure: Tumor Necrosis Factor Alpha (TNF-α)
This assay determines the effect of test compounds on the production of TNF-α in human whole blood. TNF-α assay is carried out as described by Armin hatzelmann and Christian Schudt (J Pharm Exp Ther 297, 261, 2001). Compounds are tested for their ability to inhibit the activity of TNF-α in human whole blood. The test compounds are pre-incubated for 15 minutes at 37° C. and then stimulated with Lipopolysaccharide (Salmonella abortus equi, 1 μg/ml) for 4 h at 37° C. in 5% CO2. The levels of TNF-α are estimated using Enzyme linked Immunosorbent assay performed in a 96 well format as per the procedure of the manufacturer (Cayman Chemical, Ann Arbor, USA).

Structure (SMILES) | melting point [°C] | inhibition at 1 µM (COX-2) [%] | inhibition at 0.25 µM (COX-2) [%] | inhibition at 0.25 µM (IL-6) [%] | activity at 100 µM (NCI-H460) [%] | activity at 100 µM (MCF-7) [%] | activity at 100 µM (SF-268) [%] | inhibition in vivo at 10 mg/kg (Male Wistar rats [1]) [%] | Gastroulcerogenic potential (% incidence of ulceration) (Male Wistar rats [2]) [%] | inhibition at 1 µM (TNF-α) [%] | inhibition at 100 µM (IL-6; 100 μM) [%] | inhibition at 1 µM (IL-6) [%] | inhibition at 10 µM (IL-6; 10 μM) [%]
CSc1ccc(-n2c(-c3ccccc3)nc(SC)c(C#N)c2=O)cc1 [Example 3, 5-cyano-2-phenyl-4-(methylthio)-1-[4-(methylthio)phenyl]-6-oxo-1,6-dihydropyrimidine] | 204 to 205 |  |  | 11.3 | 30 | 82 | 90 |  |  |  |  |  | 
CSc1ccc(-n2c(-c3ccc(F)cc3)nc(SC)c(C#N)c2=O)cc1 [Example 2, 5-cyano-2-(4-fluorophenyl)-4-(methylthio)-1-[4-(methylthio)phenyl]-6-oxo-1,6-dihydropyrimidine] | 204 to 207 | 53.4 |  | 45 |  |  |  | 39 | 25 |  |  |  | 
CSc1ccc(-c2nc(SC)c(C#N)c(=O)n2-c2ccc(Cl)cc2)cc1 [Example 18, 1-(4-chlorophenyl)-5-cyano-4-(methylthio)-2-[4-(methylthio)phenyl]-6-oxo-1,6-dihydropyrimidine] | 203 to 205 |  |  |  | 98 | 89 | 86 |  |  | 35.7 | 44.8 |  | 
CSc1nc(-c2ccc(S(C)(=O)=O)cc2)n(-c2ccc(C)cc2)c(=O)c1C#N [Example 7, 5-cyano-2-[(4-methylsulphonyl)phenyl]-4-(methylthio)-1-(4-methylphenyl)-6-oxo-1,6-dihydropyrimidine] | 242 to 244 |  | 31.7 |  |  |  |  | 28.1 | 25 |  |  | 37.1 | 
CSc1ccc(-c2nc(SC)c(C(=O)O)c(=O)n2-c2ccc(C)cc2)cc1 [Example 8, 5-carboxy-2-[(4-methylthio)phenyl]-4-(methylthio)-1-(4-methylphenyl)-6-oxo-1,6-dihydropyrimidine] | 173 to 175 | 40.1 |  |  | 51 | 77 | 89 |  |  |  |  | 69.4 | 
CSc1ccc(-c2nc(SC)c(C#N)c(=O)n2-c2ccc(C(C)C)cc2)cc1 [Example 9, 5-cyano-1-(4-isopropylphenyl)-4-(methylthio)-2-[4-(methylthio)phenyl]-6-oxo-1,6-dihydropyrimidine] | 180 to 181 |  |  | 31.1 |  |  |  | 37.2 | 0 |  |  |  | 

Now from value to molecule, other results behind:

melting point [°C] | inhibition at 1 µM (COX-2) [%] | inhibition at 0.25 µM (COX-2) [%] | Structure (SMILES) | inhibition at 0.25 µM (IL-6) [%] | activity at 100 µM (NCI-H460) [%] | activity at 100 µM (MCF-7) [%] | activity at 100 µM (SF-268) [%] | inhibition in vivo at 10 mg/kg (Male Wistar rats [1]) [%] | Gastroulcerogenic potential (% incidence of ulceration) (Male Wistar rats [2]) [%] | inhibition at 1 µM (TNF-α) [%] | inhibition at 100 µM (IL-6; 100 μM) [%] | inhibition at 1 µM (IL-6) [%] | inhibition at 10 µM (IL-6; 10 μM) [%]
158 to 161 | 14.9 |  | CSc1ccc(-n2c(-c3ccccn3)nc(SC)c(C#N)c2=O)cc1 [Example 30, 5-cyano-4-(methylthio)-1-[4-(methylthio)phenyl]-6-oxo-2-pyridin-2-yl-1,6-dihydropyrimidine] |  | 27 | 38 | 86 |  |  |  |  |  | 
153 to 155 |  |  | CCOC(=O)c1c(SC)nc(-c2ccc(SC)cc2)n(-c2ccc(C)cc2)c1=O [Example 41, ethyl 1-(4-methylphenyl)-4-(methylthio)-2-[4-(methylthio)phenyl]-6-oxo-1,6-dihydropyrimidine-5-carboxylate] |  | 86 | 85 | 89 |  |  |  |  |  | 21.9
209 to 213 |  | 7.79 | CCOc1ccc(-n2c(-c3ccc(SC)cc3)nc(SC)c(C#N)c2=O)cc1 [Example 21, 5-cyano-1-(4-ethoxyphenyl)-4-(methylthio)-2-[4-(methylthio)phenyl]-6-oxo-1,6-dihydropyrimidine] |  | 92 | 84 | 91 |  |  | 46.6 |  | 17.3 | 
190 to 193 |  |  | CSc1nc(-c2cccnc2)n(-c2ccc(F)cc2)c(=O)c1C#N [Example 26, 5-cyano-1-(4-fluorophenyl)-4-(methylthio)-6-oxo-2-pyridin-3-yl-1,6-dihydropyrimidine] |  | 79 | 74 | 99 |  |  | 30.6 |  |  | 
